Reference: PMC10965373 (ChemMedChem, 2024)
Converted amounts (≈) assume the structure as drawn. “And” between values parts separate entries of the source, which are not always exact repeats. Identical values can stand only once.

Tests used:
[1] = tested on: human kidney epithelia cells HEK293; experiment: Single concentration cytotoxicity against HEK293; details: HEK293, 50 μM, 24 h, relative to DMSO-treated cells
[2] = cited from earlier work
[3] = after 4 h of incubation, Medicines for Malaria Venture data; cited from earlier work
[4] = cited from earlier work; remark: listed apart in the source
[5] = tested on: Mycobacterium abscessus ATCC 19977; details: in vitro; cited from earlier work
[6] = In vitro microsomal stability, murine microsomal suspension
[7] = male Sprague Dawley rats; cited from earlier work
[8] = In vitro microsomal stability, human microsomal suspension
[9] = Single concentration cytotoxicity against HEK293; details: human
[10] = tested on: Mycobacterium tuberculosis H37Rv; details: in vitro; cited from earlier work
[11] = 2 μM substrate, 0.42 mg/mL microsomal proteins, 100 mM phosphate buffer pH 7.4
[12] = after 7 min, 2 μM substrate, 0.42 mg/mL microsomal proteins, pH 7.4

Compound | relative cell viability [1] | stability during incubation with murine liver microsomes [2] | remaining substance in murine plasma [3] | stability during incubation with human liver microsomes [4] | MIC90 against Mabs [5] | half-life in murine microsomal suspension [6, 11] | remaining substance in murine microsomal suspension [6, 12] | plasma levels after oral administration [7] | half-life in human microsomal suspension [8, 11] | remaining substance in human microsomal suspension [8, 12] | viability at 24 h, 50 µM [9] | stability in murine microsomal suspension ([6]; murine microsomal suspension) | MIC90 against Mtb [10] | stability in human microsomal suspension ([8]; human microsomal suspension)
O=C(N[C@H](Cc1ccccc1)C(=O)Nc1ccccc1N1CCOCC1)c1cccs1 [MMV] | 67% | highly unstable | 60% | highly unstable | 6.25 µM (≈ 2.72 µg/mL) | 0.9 min | 0% | insufficient plasma levels | 1.2 min | 2% | – | – | – | –
O=C(N[C@H](Cc1ccccc1)C(=O)Nc1ccccc1N1CCS(=O)(=O)CC1)c1ccccc1F [compound 2, (2R)-2-[(2-fluorophenyl)formamido]-N-[2-(1,1-dioxo-1λ6-thiomorpholin-4-yl)phenyl]-3-phenylpropanamide] | – | highly unstable | – | highly unstable | 0.78 µM and < 1 µM | – | – | – | – | – | 73% | comparably low stabilities | < 1 µM | comparably low stabilities
